Assay results reported in PubChem BioAssay AID1745844 (Carcinogenic Potency Database (CPDB), 2022).
Calls of active or inactive are those of the source. The rule behind the calls is not given here.

System: rodent lifetime carcinogenesis bioassay, tumor incidence TD50
Experiment: chronic cancer bioassays in animals – CPDB, compiled studies (AID 1745844)

With `Cc1c(N)cccc1N` the TD50 (mouse, strain B6C3F1, females, in feed, site: any site (literature study), lesion: several types, types named in the paper, dosed 103 weeks, study length 105 weeks) was 75.9 mg/kg/day, the TD50 (mouse, strain B6C3F1, females, in feed, site: liver, lesion: hepatocellular adenoma + hepatocellular carcinoma + neoplastic nodule, dosed 103 weeks, study length 105 weeks) was 129 mg/kg/day and the TD50 (mouse, strain B6C3F1, females, in feed, site: liver, lesion: hepatocellular carcinoma, dosed 103 weeks, study length 105 weeks) was 181 mg/kg/day (inactive). For the same compound, the TD50 (mouse, strain B6C3F1, males, in feed, site: all sites, lesion: lymphoma, dosed 103 weeks, study length 104 weeks) was 20.5 mg/kg/day (inactive), the carcinogen call (rat, strain Fischer 344, females, in feed, site: any site (literature study), lesion: several types, types named in the paper, dosed 103 weeks, study length 105 weeks) was “negative (inactive)” and the TD50 (rat, strain Fischer 344, females, in feed, site: liver, lesion: hepatocellular adenoma + hepatocellular carcinoma + neoplastic nodule, dosed 103 weeks, study length 105 weeks) was 455 mg/kg/day. For the same compound, the TD50 (rat, strain Fischer 344, males, in feed, site: liver, lesion: hepatocellular adenoma + hepatocellular carcinoma + neoplastic nodule, dosed 103 weeks, study length 104 weeks) was 117 mg/kg/day, the TD50 (rat, strain Fischer 344, males, in feed, site: liver, lesion: hepatocellular carcinoma + neoplastic nodule, dosed 103 weeks, study length 104 weeks) was 117 mg/kg/day (inactive) and the TD50 (rat, strain Fischer 344, males, in feed, site: pancreatic islets, lesion: islet-cell adenoma, dosed 103 weeks, study length 104 weeks) was 140 mg/kg/day.
Compound `Cc1c(N)nc(C)c2c1[nH]c1ccccc12` has a TD50 (mouse, strain CDF1, females, in feed, site: liver, lesion: hepatocellular carcinoma, dosed 88 weeks, study length 88 weeks) of 29.6 mg/kg/day, a TD50 (mouse, strain CDF1, females, in feed, site: liver, lesion: several types, types named in the paper, dosed 88 weeks, study length 88 weeks) of 25 mg/kg/day and a TD50 (mouse, strain CDF1, males, in feed, site: liver, lesion: hepatocellular carcinoma, dosed 88 weeks, study length 88 weeks) of 112 mg/kg/day. For the same compound, the TD50 (mouse, strain CDF1, males, in feed, site: liver, lesion: several types, types named in the paper, dosed 88 weeks, study length 88 weeks) was 109 mg/kg/day, the TD50 (rat, strain F344/DuCrj, females, in feed, site: liver, lesion: hepatocellular carcinoma, dosed 52 weeks, study length 52 weeks) was 0.577 mg/kg/day and the TD50 (rat, strain F344/DuCrj, males, in feed, site: liver, lesion: hepatocellular carcinoma, dosed 52 weeks, study length 52 weeks) was 0.574 mg/kg/day.
In the case of `NC1CCCCC1`, the carcinogen call (mouse, strain ASH-CS1, females, in feed, site: any site (literature study), lesion: several types, types named in the paper, dosed 80 weeks, study length 84 weeks) was “negative (inactive)”, the carcinogen call (mouse, strain ASH-CS1, females, in feed, site: liver, lesion: nodular hyperplasia, dosed 80 weeks, study length 84 weeks) was “negative (inactive)” and the carcinogen call (mouse, strain ASH-CS1, females, in feed, site: lung, lesion: adenoma, dosed 80 weeks, study length 84 weeks) was “negative (inactive)”. For the same compound, the carcinogen call (mouse, strain ASH-CS1, males, in feed, site: any site (literature study), lesion: several types, types named in the paper, dosed 80 weeks, study length 84 weeks) was “negative (inactive)”, the TD50 (mouse, strain ASH-CS1, males, in feed, site: liver, lesion: nodular hyperplasia, dosed 80 weeks, study length 84 weeks) was 231 mg/kg/day (inactive) and the carcinogen call (mouse, strain ASH-CS1, males, in feed, site: lung, lesion: adenocarcinoma, dosed 80 weeks, study length 84 weeks) was “negative (inactive)”. The carcinogen call (mouse, strain ASH-CS1, males, in feed, site: lung, lesion: adenoma, dosed 80 weeks, study length 84 weeks) was “negative (inactive)”, the carcinogen call (mouse, strain Swiss, females, in feed, site: urinary bladder, lesion: anaplastic carcinoma, dosed 91 weeks, study length 91 weeks) was “negative (inactive)” and the carcinogen call (mouse, strain Swiss, males, in feed, site: urinary bladder, lesion: one or several types, types not named, dosed 91 weeks, study length 91 weeks) was “negative (inactive)”. The TD50 (rat, strain Charles River albino, males, in feed, site: urinary bladder, lesion: transitional-cell carcinoma, dosed 104 weeks, study length 104 weeks) was 280 mg/kg/day, the carcinogen call (rat, strain FDRL, both sexes, in feed, site: any site (literature study), lesion: several types, types named in the paper, dosed 104 weeks, study length 104 weeks) was “negative (inactive)” and the carcinogen call (rat, strain Sprague-Dawley, both sexes, in feed, site: any site (literature study), lesion: malignant tumor, dosed 130 weeks, study length 130 weeks) was “negative (inactive)”. For the same compound, the TD50 (rat, strain Sprague-Dawley, both sexes, in feed, site: liver, lesion: liver-cell adenoma, dosed 130 weeks, study length 130 weeks) was 14500 mg/kg/day (inactive), the carcinogen call (rat, strain Sprague-Dawley, both sexes, in feed, site: urinary bladder, lesion: one or several types, types not named, dosed 130 weeks, study length 130 weeks) was “negative (inactive)” and the TD50 (rat, strain Wistar, females, in feed, site: liver, lesion: hemangioma, dosed 104 weeks, study length 104 weeks) was 1330 mg/kg/day (inactive). The carcinogen call (rat, strain Wistar, males, in feed, site: liver, lesion: hemangioma, dosed 104 weeks, study length 104 weeks) was “negative (inactive)” and the TD50 (rat, strain Wistar, males, in feed, site: liver, lesion: nodular hyperplasia, dosed 104 weeks, study length 104 weeks) was 47000 mg/kg/day (inactive).
With `O=S(=O)([O-])[O-].[Cd+2]` the carcinogen call (hamster, strain Syrian Golden, females, inhaled, site: lung, lesion: one or several types, types not named, dosed 61 weeks, study length 76 weeks) was “negative (inactive)”, the carcinogen call (hamster, strain Syrian Golden, females, inhaled, site: lung, lesion: one or several types, types not named, dosed 64 weeks, study length 77 weeks) was “negative (inactive)” and the carcinogen call (hamster, strain Syrian Golden, males, inhaled, site: lung, lesion: one or several types, types not named, dosed 61 weeks, study length 103 weeks) was “negative (inactive)”. For the same compound, the carcinogen call (hamster, strain Syrian Golden, males, inhaled, site: lung, lesion: one or several types, types not named, dosed 64 weeks, study length 113 weeks) was “negative (inactive)”, the TD50 (mouse, strain NMRI, females, inhaled, site: lung, lesion: adenocarcinoma, dosed 42 weeks, study length 96 weeks) was 0.829 mg/kg/day (inactive) and the carcinogen call (mouse, strain NMRI, females, inhaled, site: lung, lesion: adenocarcinoma, dosed 69 weeks, study length 94 weeks) was “negative (inactive)”. The carcinogen call (mouse, strain NMRI, females, inhaled, site: lung, lesion: adenoma, dosed 42 weeks, study length 96 weeks) was “negative (inactive)”, the carcinogen call (mouse, strain NMRI, females, inhaled, site: lung, lesion: adenoma, dosed 69 weeks, study length 94 weeks) was “negative (inactive)” and the carcinogen call (mouse, strain NMRI, females, inhaled, site: lung, lesion: several types, types named in the paper, dosed 42 weeks, study length 96 weeks) was “negative (inactive)”. For the same compound, the carcinogen call (mouse, strain NMRI, females, inhaled, site: lung, lesion: several types, types named in the paper, dosed 69 weeks, study length 94 weeks) was “negative (inactive)”, the TD50 (rat, strain Wistar, females, inhaled, site: lung, lesion: adenocarcinoma, dosed 78 weeks, study length 126 weeks) was 0.112 mg/kg/day and the TD50 (rat, strain Wistar, females, inhaled, site: lung, lesion: adenosquamous carcinoma, dosed 78 weeks, study length 126 weeks) was 0.112 mg/kg/day. For the same compound, the TD50 (rat, strain Wistar, females, inhaled, site: lung, lesion: alveolar/bronchiolar adenoma, dosed 78 weeks, study length 126 weeks) was 0.18 mg/kg/day, the TD50 (rat, strain Wistar, females, inhaled, site: lung, lesion: several types, types named in the paper, dosed 78 weeks, study length 126 weeks) was 0.0174 mg/kg/day and the TD50 (rat, strain Wistar, females, inhaled, site: lung, lesion: squamous-cell tumor, dosed 78 weeks, study length 126 weeks) was 0.381 mg/kg/day. The TD50 (rat, strain Wistar, males, inhaled, site: lung, lesion: adenocarcinoma, dosed 60 weeks, study length 134 weeks) was 0.0537 mg/kg/day, the TD50 (rat, strain Wistar, males, inhaled, site: lung, lesion: adenosquamous carcinoma, dosed 60 weeks, study length 134 weeks) was 0.219 mg/kg/day and the TD50 (rat, strain Wistar, males, inhaled, site: lung, lesion: alveolar/bronchiolar adenoma, dosed 60 weeks, study length 134 weeks) was 0.219 mg/kg/day. For the same compound, the TD50 (rat, strain Wistar, males, inhaled, site: lung, lesion: several types, types named in the paper, dosed 60 weeks, study length 134 weeks) was 0.0289 mg/kg/day.
Compound `NNc1ccccc1` has a TD50 (mouse, strain Swiss albino, females, in drinking water, site: blood vessels, lesion: angioma, dosed 112 weeks, study length 112 weeks) of 147 mg/kg/day, a TD50 (mouse, strain Swiss albino, females, in drinking water, site: blood vessels, lesion: angiosarcoma, dosed 112 weeks, study length 112 weeks) of 165 mg/kg/day and a TD50 (mouse, strain Swiss albino, females, in drinking water, site: blood vessels, lesion: several types, types named in the paper, dosed 112 weeks, study length 112 weeks) of 72.1 mg/kg/day. It also gave a TD50 (mouse, strain Swiss albino, females, in drinking water, site: liver, lesion: angioma, dosed 112 weeks, study length 112 weeks) of 165 mg/kg/day, a TD50 (mouse, strain Swiss albino, females, in drinking water, site: liver, lesion: angiosarcoma, dosed 112 weeks, study length 112 weeks) of 165 mg/kg/day and a TD50 (mouse, strain Swiss albino, females, in drinking water, site: liver, lesion: several types, types named in the paper, dosed 112 weeks, study length 112 weeks) of 68.6 mg/kg/day. The carcinogen call (mouse, strain Swiss albino, females, in drinking water, site: lung, lesion: several types, types named in the paper, dosed 112 weeks, study length 112 weeks) was “negative (inactive)”, the TD50 (mouse, strain Swiss albino, males, in drinking water, site: blood vessels, lesion: several types, types named in the paper, dosed 112 weeks, study length 112 weeks) was 70.6 mg/kg/day and the TD50 (mouse, strain Swiss albino, males, in drinking water, site: liver, lesion: several types, types named in the paper, dosed 112 weeks, study length 112 weeks) was 83.9 mg/kg/day. The carcinogen call (mouse, strain Swiss albino, males, in drinking water, site: lung, lesion: several types, types named in the paper, dosed 112 weeks, study length 112 weeks) was “negative (inactive)” and the carcinogen call (mouse, strain Swiss, females, by gavage, site: lung, lesion: one or several types, types not named, dosed 39 weeks, study length 55 weeks) was “negative (inactive)”.
For `O=NN1CSCSC1`, the TD50 (rat, strain Fischer 344, females, by gavage, site: liver, lesion: hepatocellular carcinoma, dosed 47 weeks, study length 110 weeks) was 10.5 mg/kg/day (inactive) and the TD50 (rat, strain Fischer 344, females, by gavage, site: nasal mucosa, lesion: carcinoma, dosed 47 weeks, study length 110 weeks) was 5.11 mg/kg/day.
